Data from patent US20250339569A1, “CARBONIC ANHYDRASE IX LIGANDS” (priority 2021, published 2025).
Where two headings read alike, the source gives them in different places. Starred links: 1 amine or outer side, 2 acyl side, 3 side chain; linkers in the order of their positions; H or OH if unused. Positions of bridges follow the written chain, without caps; N, C: chain ends. Non-standard residues stand in square brackets, D forms with d. Residues, ends and D or L forms follow the SMILES beside them. *: point of attachment. Phe(3-NHCO(CH2)3SO2NH2) = N[C@@H](Cc1cccc(NC(=O)CCCS(N)(=O)=O)c1)C(=O)O; X3 = O=C(O)CN1CCN(CC(=O)O)CCN(CC(=O)NCCCOCCOCCOCCCN*)CCN(CC(=O)O)CC1; NH(1-deoxy-D-glucityl) = OC[C@@H](O)[C@@H](O)[C@H](O)[C@@H](O)CN*; DOTA = O=C(O)CN1CCN(CC(=O)O)CCN(CC(=O)*)CCN(CC(=O)O)CC1; X7 = O=C([C@H](Cc1cccc(N[*:3])c1)N[*:1])[*:2]; Propanoyl(3-SO2NH2) = NS(=O)(=O)CCC(=O)*; Phe(4-NH2) = Nc1ccc(C[C@H](N)C(=O)O)cc1; mXylylene = c1cc(C[*:1])cc(C[*:2])c1; X36 = NS(=O)(=O)Cc1ccc(C(=O)*)cc1; X2 = O=C(CN1CCC(N[*:1])CC1)[*:2]; X1 = O=C(CN1CCN([*:1])CC1)[*:2]; Suc = O=C(CCC(=O)[*:2])[*:1]; Pip = O=C(O)[C@@H]1CCCCN1; Dap = NC[C@H](N)C(=O)O

Columns and labels:
[1] = biological target: T1, CAIX-expressing human HT-29 colorectal cancer cells (Homo sapiens, UniProt Q16790); assay: FACS binding assay (IC50 determination, competition with tracer 3BP-2776 or 3BP-4149); conditions: 4° C., 1 hour, read-out: pIC50 category (activity) (converted)
T1 construct: CAIX-expressing human HT-29 colorectal cancer cells; host or cells: HT-29 human colorectal cancer cells
Summary of the method: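 HT-29 cells in FACS buffer (PBS, 1% FCS) at 500.000 cells/ml were exposed to compounds competing with a labelled tracer, with biotinylated compounds detected by 1 μg/mL APC-streptavidin for 30 min on ice. APC/Cy5 median fluorescence was read by flow cytometry and IC50 derived by 4PL fit.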

[2] = biological target: T2, human carbonic anhydrase IX (hCAIX-Fc) (Homo sapiens, UniProt Q16790); assay: Surface plasmon resonance assay with hCAIX-Fc; assay type: binding; conditions: 25° C.; for t1/2 category (activity): SPR dissociation half-life, hCAIX-Fc; for Kd: SPR, hCAIX-Fc captured, read-out: pKD category (activity) (converted)
T2 construct: purchased SinoBliological (Sino Biological) 10107-H02H

[3] = FACS binding assay, HT-29 cells, competition with tracer 3BP-4149 (3 nM, Cy5-labeled)
[4] = FACS competition on HT-29 cells, Tracer ID 3BP-2776 (10 nM, biotin-labeled)
[5] = FACS binding assay, HT-29 cells, competition with tracer 3BP-2776 (10 nM, biotin-labeled)

| IC50 [1, 3] | t1/2 category (activity) [2] | Kd [2] | IC50 [1, 4] | IC50 [1, 5] | Structure (SMILES) |
| --- | --- | --- | --- | --- | --- |
| 10 to 79.4 nM | A (t1/2>15.0 minutes) | < 10 nM | – | – | CC(C)C[C@@H]1NC(=O)[C@H](Cc2cccc(NC(=O)CCCS(N)(=O)=O)c2)NC(=O)[C@H](CC(=O)O)NC(=O)[C@H]2CCCN2C(=O)[C@H](CCC(=O)O)NC(=O)[C@@H](NC(=O)[C@H](Cc2ccc(O)cc2)NC(=O)[C@@H]2CCCCN2C(=O)CN2CCN(CC(=O)O)CCN(CC(=O)O)CCN(CC(=O)O)CC2)CSCc2cccc(c2)CSC[C@@H](C(N)=O)NC(=O)[C@H](CO)NC(=O)[C@H](Cc2c[nH]c3ccccc23)NC(=O)[C@H]([C@@H](C)O)NC1=O [3BP-4456] ({DOTA}-[Pip]YCE[dP]D[Phe(3-NHCO(CH2)3SO2NH2)]LTWSC-NH2; linker 3-12 via mXylylene) |
| < 10 nM | A (t1/2>15.0 minutes) | < 10 nM | – | – | CC(C)C[C@@H]1NC(=O)[C@H](Cc2cccc(NC(=O)c3ccc(CS(N)(=O)=O)cc3)c2)NC(=O)[C@H](CC(=O)O)NC(=O)[C@H]2CCCN2C(=O)[C@H](CCC(=O)O)NC(=O)[C@@H](NC(=O)[C@H](Cc2ccc(O)cc2)NC(=O)[C@@H](NC(=O)CN2CCC(NC(=O)CN3CCN(CC(=O)O)CCN(CC(=O)O)CCN(CC(=O)O)CC3)CC2)C(C)C)CSCc2cccc(c2)CSC[C@@H](C(N)=O)NC(=O)[C@H](CO)NC(=O)[C@H](Cc2c[nH]c3ccccc23)NC(=O)[C@H]([C@@H](C)O)NC1=O [3BP-4406] ({DOTA}-[X2]VYCE[dP]D[X7](X36)LTWSC-NH2; linker 4-13 via mXylylene) |
| – | B (t1/2 between 5.1 and 15.0 minutes) | < 10 nM | – | < 10 nM | CC(C)C[C@@H]1NC(=O)[C@H](Cc2cccc(NC(=O)c3cccc(NS(N)(=O)=O)n3)c2)NC(=O)[C@H](CC(=O)O)NC(=O)[C@H]2CCCN2C(=O)[C@H](CCC(=O)O)NC(=O)[C@@H](NC(=O)[C@H](CCC(N)=O)NC(=O)CN2CCN(C(=O)CN3CCN(CC(=O)O)CCN(CC(=O)O)CCN(CC(=O)O)CC3)CC2)CSCc2cccc(c2)CSC[C@@H](C(N)=O)NC(=O)[C@H](CO)NC(=O)[C@H](Cc2c[nH]c3ccccc23)NC(=O)[C@H]([C@@H](C)O)NC1=O [3BP-4514] |
| 10 to 79.4 nM | D (t1/2≤2.0 minutes) | 10 to 79.4 nM | – | – | CC(C)C[C@@H]1NC(=O)[C@H](Cc2ccc(NC(=O)CCC(=O)O)cc2)NC(=O)[C@H](CC(=O)O)NC(=O)[C@H]2CCCN2C(=O)[C@H](CCC(=O)O)NC(=O)[C@@H](NC(=O)[C@H](Cc2ccc(O)cc2)NC(=O)[C@@H](NC(=O)CN2CCC(NC(=O)CN3CCN(CC(=O)O)CCN(CC(=O)O)CCN(CC(=O)O)CC3)CC2)C(C)C)CSCc2cccc(c2)CSC[C@@H](C(N)=O)NC(=O)[C@H](CO)NC(=O)[C@H](Cc2c[nH]c3ccccc23)NC(=O)[C@H]([C@@H](C)O)NC1=O [3BP-4356] ({DOTA}-[X2]VYCE[dP]D[Phe(4-NH2)](Suc)LTWSC-NH2; linker 4-13 via mXylylene) |
| 10 to 79.4 nM | A (t1/2>15.0 minutes) | < 10 nM | – | – | CC(C)C[C@@H]1NC(=O)[C@H](Cc2ccc(NC(=O)CCS(N)(=O)=O)cc2)NC(=O)[C@H](CC(=O)O)NC(=O)[C@H]2CCCN2C(=O)[C@H](CCC(=O)O)NC(=O)[C@@H]2CSCc3cccc(c3)CSC[C@@H](C(N)=O)NC(=O)[C@H](CNC(=O)C[C@H](NC(=O)CN3CCN(C(=O)CN4CCN(CC(=O)O)CCN(CC(=O)O)CCN(CC(=O)O)CC4)CC3)C(=O)N2)NC(=O)[C@H](Cc2c[nH]c3ccccc23)NC(=O)[C@H]([C@@H](C)O)NC1=O [3BP-4498] ({DOTA}-[X1]DCE[dP]D[Phe(4-NH2)](Propanoyl(3-SO2NH2))LTW[Dap]C-NH2; lactam 2-11; linker 3-12 via mXylylene) |
| < 10 nM | A (t1/2>15.0 minutes) | < 10 nM | – | – | CC(C)C[C@@H]1NC(=O)[C@H](Cc2ccc(NC(=O)CCS(N)(=O)=O)cc2)NC(=O)[C@H](CC(=O)O)NC(=O)[C@H]2CCCN2C(=O)[C@H](CCC(=O)O)NC(=O)[C@@H](NC(=O)[C@H](Cc2ccc(O)cc2)NC(=O)[C@@H](NC(=O)CN2CCC(NC(=O)CN3CCN(CC(=O)O)CCN(CC(=O)O)CCN(CC(=O)O)CC3)CC2)C(C)C)CSCc2cccc(c2)CSC[C@@H](C(N)=O)NC(=O)[C@H](CO)NC(=O)[C@H](Cc2c[nH]c3ccccc23)NC(=O)[C@H]([C@@H](C)O)NC1=O [3BP-4400] ({DOTA}-[X2]VYCE[dP]D[Phe(4-NH2)](Propanoyl(3-SO2NH2))LTWSC-NH2; linker 4-13 via mXylylene) |

The remaining lines, values behind:

| Structure (SMILES) | IC50 [1, 3] | t1/2 category (activity) [2] | Kd [2] | IC50 [1, 4] | IC50 [1, 5] |
| --- | --- | --- | --- | --- | --- |
| CC(C)C[C@@H]1NC(=O)[C@H](Cc2c[nH]c3ccccc23)NC(=O)[C@H](CC(=O)O)NC(=O)[C@H]2CCCN2C(=O)[C@H](CCC(=O)O)NC(=O)[C@@H](NC(=O)CN2CCC(NC(=O)CN3CCN(CC(=O)O)CCN(CC(=O)O)CCN(CC(=O)O)CC3)CC2)CSCc2cccc(c2)CSC[C@@H](C(N)=O)NC(=O)[C@H](CO)NC(=O)[C@H](Cc2c[nH]c3ccccc23)NC(=O)[C@H]([C@@H](C)O)NC1=O [3BP-3858] ({DOTA}-[X2]CE[dP]DWLTWSC-NH2; linker 2-11 via mXylylene) | – | D (t1/2≤2.0 minutes) | < 10 nM | < 10 nM | – |
| CC(C)C[C@@H]1NC(=O)[C@H](Cc2c[nH]c3ccccc23)NC(=O)[C@H](CC(=O)O)NC(=O)[C@@H](C)NC(=O)[C@H](CCC(=O)O)NC(=O)[C@@H](NC(=O)[C@H](Cc2ccc(O)cc2)NC(=O)[C@@H](NC(=O)CCC(=O)NCCCOCCOCCOCCCNC(=O)CN2CCN(CC(=O)O)CCN(CC(=O)O)CCN(CC(=O)O)CC2)C(C)C)CSCc2cccc(c2)CSC[C@@H](C(N)=O)NC(=O)[C@H](C)NC(=O)[C@H](Cc2c[nH]c3ccccc23)NC(=O)[C@H]([C@@H](C)O)NC1=O [3BP-3279] ({X3-Suc}-VYCE[dA]DWLTWAC-NH2; linker 3-12 via mXylylene) | – | B (t1/2 between 5.1 and 15.0 minutes) | < 10 nM | < 10 nM | – |
| CC(C)C[C@@H]1NC(=O)[C@H](Cc2c[nH]c3ccccc23)NC(=O)[C@H](CC(=O)O)NC(=O)[C@H]2CCCN2C(=O)[C@H](CCC(=O)O)NC(=O)[C@@H](NC(=O)[C@H](Cc2ccc(O)cc2)NC(=O)[C@@H](NC(=O)CN2CCC(NC(=O)CN3CCN(CC(=O)O)CCN(CC(=O)O)CCN(CC(=O)O)CC3)CC2)C(C)C)CSCc2cccc(c2)CSC[C@@H](C(N)=O)NC(=O)[C@H](CO)NC(=O)[C@H](Cc2c[nH]c3ccccc23)NC(=O)[C@H](CCC(=O)NC[C@H](O)[C@@H](O)[C@H](O)[C@H](O)CO)NC1=O [3BP-4121] ({DOTA}-[X2]VYCE[dP]DWLE(NH(1-deoxy-D-glucityl))WSC-NH2; linker 4-13 via mXylylene) | – | A (t1/2>15.0 minutes) | < 10 nM | – | < 10 nM |
| CC(C)C[C@@H]1NC(=O)[C@H](Cc2c[nH]c3ccccc23)NC(=O)[C@H](CC(=O)O)NC(=O)[C@@H](CCC(=O)NC[C@H](O)[C@@H](O)[C@H](O)[C@H](O)CO)NC(=O)[C@H](CCC(=O)O)NC(=O)[C@@H](NC(=O)[C@H](Cc2ccc(O)cc2)NC(=O)[C@@H](NC(=O)CN2CCC(NC(=O)CN3CCN(CC(=O)O)CCN(CC(=O)O)CCN(CC(=O)O)CC3)CC2)C(C)C)CSCc2cccc(c2)CSC[C@@H](C(N)=O)NC(=O)[C@H](CO)NC(=O)[C@H](Cc2c[nH]c3ccccc23)NC(=O)[C@H]([C@@H](C)O)NC1=O [3BP-4119] ({DOTA}-[X2]VYCE[dE](NH(1-deoxy-D-glucityl))DWLTWSC-NH2; linker 4-13 via mXylylene) | – | – | < 10 nM | – | < 10 nM |
